In one assay the target is T1, human CB1 receptors (Homo sapiens, UniProt P21554).
T1 construct: expressed in transfected cells; host or cells: CHO cells
Put plainly: cAMP assay, human CB1. Format: cell-based. The gist of the method: (§1)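 CHO cells expressing human CB1 or CB2, preincubated in Krebs Ringer bicarbonate with 1 mM IBMX, then compound for 30 min at 30° C. cAMP quantified by time-resolved FRET (cAMP-Nano-TRF) against a cAMP standard curve; EC50 values derived.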
For orientation: cAMP levels reflect the balance of adenylyl cyclase and phosphodiesterase activity.

The target in the next assay is T2, human CB2 receptors (Homo sapiens, UniProt P34972).
T2 construct: expressed in transfected cells; host or cells: CHO cells
Put plainly: cAMP assay, human CB2. Format: cell-based. Summed up: as §1

[1] abbreviates: functional cAMP assay, CHO cells expressing human CB1, read-out: Ec50: CB1 - hu cAMP.
Setting [2] is: functional cAMP assay, CHO cells expressing human CB2, read-out: Ec50: CB2 - hu cAMP.

Drawing on patent US20160083357A1, “NOVEL TETRAZOLONE DERIVATIVES” (Hoffmann-La Roche Inc., priority 2013, published 2016), this text covers EC50 for 26 molecules.

Read-outs that look alike come from different tables or passages of the source. Where only a bound is given, the exact number is not on record here.

T2 sequence (P34972 whole entry): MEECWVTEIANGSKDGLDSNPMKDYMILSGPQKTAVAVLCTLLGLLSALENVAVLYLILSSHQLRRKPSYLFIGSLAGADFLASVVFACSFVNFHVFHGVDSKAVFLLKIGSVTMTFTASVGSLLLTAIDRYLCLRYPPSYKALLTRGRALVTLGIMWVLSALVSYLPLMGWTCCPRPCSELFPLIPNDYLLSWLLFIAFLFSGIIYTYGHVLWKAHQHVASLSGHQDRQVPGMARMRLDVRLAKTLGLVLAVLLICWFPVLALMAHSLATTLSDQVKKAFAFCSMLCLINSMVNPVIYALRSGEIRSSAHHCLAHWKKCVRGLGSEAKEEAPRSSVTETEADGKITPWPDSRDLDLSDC
T1 sequence (P21554 whole entry): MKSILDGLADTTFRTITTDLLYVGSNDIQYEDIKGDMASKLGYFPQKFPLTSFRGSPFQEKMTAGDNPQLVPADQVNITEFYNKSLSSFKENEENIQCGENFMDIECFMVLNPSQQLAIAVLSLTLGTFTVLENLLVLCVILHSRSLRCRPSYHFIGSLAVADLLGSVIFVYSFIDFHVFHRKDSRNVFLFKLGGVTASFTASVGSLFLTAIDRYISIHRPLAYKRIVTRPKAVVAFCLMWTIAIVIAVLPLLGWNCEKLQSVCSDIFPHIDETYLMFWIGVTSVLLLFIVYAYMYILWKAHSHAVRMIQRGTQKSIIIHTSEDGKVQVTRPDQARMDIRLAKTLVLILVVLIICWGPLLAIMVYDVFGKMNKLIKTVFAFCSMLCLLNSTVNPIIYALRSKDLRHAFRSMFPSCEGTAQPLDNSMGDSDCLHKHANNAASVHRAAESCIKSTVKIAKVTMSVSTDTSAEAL

As usually defined, the EC50 is the midpoint of the concentration-response curve. With `CCN(CCOC)C(=O)n1nnn(-c2ccc(Cl)cc2)c1=O` [Example 82, 4-(4-Chloro-phenyl)-5-oxo-4,5-dihydro-tetrazole-1-carboxylic acid ethyl-(2-methoxy-ethyl)-amide], the EC50 on human CB1 receptors is above 10 µM; at human CB2 receptors, 3.3 nM.

Turning to `CCNC(=O)CN1CCN(C(=O)n2nnn(-c3cccc(Cl)c3)c2=O)CC1` [Example 104, 2-{4-[4-(3-Chloro-phenyl)-5-oxo-4,5-dihydro-tetrazole-1-carbonyl]-piperazin-1-yl}-N-ethyl-acetamide], the concentration giving a half-maximal response (EC50) on human CB1 receptors (setting [1]) is above 10 µM; at human CB2 receptors (setting [2]) it was 12.7 nM.

Regarding `Cn1ccc(C2CCCN2C(=O)n2nnn(-c3cccc(F)c3)c2=O)n1` (stereo not shown) [Example 19, 1-(3-Fluoro-phenyl)-4-[2-(1-methyl-1H-pyrazol-3-yl)-pyrrolidine-1-carbonyl]-1,4-dihydro-tetrazol-5-one], the EC50 was above 10 µM at human CB1 receptors (setting [1]) and 25 nM at human CB2 receptors (setting [2]).

As to `O=C(N1CCC(F)(F)C1)n1nnn(-c2cccc(F)c2)c1=O` [Example 45, 1-(3,3-Difluoro-pyrrolidine-1-carbonyl)-4-(3-fluoro-phenyl)-1,4-dihydro-tetrazol-5-one], the EC50 is above 10 µM on human CB1 receptors (setting [1]) and 797 nM at human CB2 receptors (setting [2]).

With `CC(=O)NC1CCN(C(=O)n2nnn(-c3cccc(F)c3)c2=O)CC1` [Example 26, N-{1-[4-(3-Fluoro-phenyl)-5-oxo-4,5-dihydro-tetrazole-1-carbonyl]-piperidin-4-yl}-acetamide], the EC50 on human CB1 receptors (setting [1]) was above 10 µM; on human CB2 receptors (setting [2]), 17.8 nM.

Regarding `N#CCCN(C(=O)n1nnn(-c2cccc(F)c2)c1=O)C1CC1` [Example 31, 4-(3-Fluoro-phenyl)-5-oxo-4,5-dihydro-tetrazole-1-carboxylic acid (2-cyano-ethyl)-cyclopropyl-amide], the EC50 at human CB1 receptors (setting [1]) was above 10 µM; at human CB2 receptors (setting [2]), 166 nM.

Consider `CC1(C)CCN(C(=O)n2nnn(-c3cccc(F)c3)c2=O)CC1` [Example 28, 1-(4,4-Dimethyl-piperidine-1-carbonyl)-4-(3-fluoro-phenyl)-1,4-dihydro-tetrazol-5-one], for which the EC50 at human CB1 receptors (setting [1]) is above 10 µM; at human CB2 receptors (setting [2]), 0.8 nM.

Regarding `CCOCCN(C)C(=O)n1nnn(-c2cccc(OC(F)(F)F)c2)c1=O` [Example 112, 5-Oxo-4-(3-trifluoromethoxy-phenyl)-4,5-dihydro-tetrazole-1-carboxylic acid (2-ethoxy-ethyl)-methyl-amide], the EC50 is above 10 µM on human CB1 receptors and 4.1 nM at human CB2 receptors.

Turning to `O=C(N1CCOCC1)n1nnn(-c2ccc(F)cc2F)c1=O` [Example 123, 1-(2,4-difluorophenyl)-4-(morpholine-4-carbonyl)tetrazol-5-one], the EC50 at human CB1 receptors (setting [1]) is above 10 µM; at human CB2 receptors (setting [2]) it was 12 nM.

As for `CCN(Cc1ccncc1)C(=O)n1nnn(-c2cccc(F)c2)c1=O` [Example 6, 4-(3-Fluoro-phenyl)-5-oxo-4,5-dihydro-tetrazole-1-carboxylic acid ethyl-pyridin-4-ylmethyl-amide], the EC50 at human CB1 receptors (setting [1]) is above 10 µM; at human CB2 receptors (setting [2]), 0.8 nM.

Regarding `CCOCCN(CC)C(=O)n1nnn(-c2cccc(Cl)c2)c1=O` [Example 98, 4-(3-Chloro-phenyl)-5-oxo-4,5-dihydro-tetrazole-1-carboxylic acid (2-ethoxy-ethyl)-ethyl-amide], the EC50 on human CB1 receptors was above 10 µM; at human CB2 receptors it was 1.8 nM.

For the molecule `COC[C@@H]1CCCN1C(=O)n1nnn(-c2cccc(F)c2)c1=O` [Example 21, 1-(3-Fluoro-phenyl)-4-((S)-2-methoxymethyl-pyrrolidine-1-carbonyl)-1,4-dihydro-tetrazol-5-one], the EC50 was above 10 µM on human CB1 receptors (setting [1]) and 97.5 nM on human CB2 receptors (setting [2]).

`O=C(N1CCOCC1)n1nnn(-c2ccc(Cl)cc2)c1=O` [Example 103, 1-(4-Chloro-phenyl)-4-(morpholine-4-carbonyl)-1,4-dihydro-tetrazol-5-one]: the EC50 on human CB1 receptors (setting [1]) was above 10 µM; on human CB2 receptors (setting [2]), 4.5 nM.

Take `N#C[C@@H]1CCCN1C(=O)n1nnn(-c2cccc(F)c2)c1=O` [Example 51, (S)-1-[4-(3-Fluoro-phenyl)-5-oxo-4,5-dihydro-tetrazole-1-carbonyl]-pyrrolidine-2-carbonitrile]: the EC50 was above 10 µM on human CB1 receptors (setting [1]) and 154 nM on human CB2 receptors (setting [2]).

On to `O=C(N1CCOCC1)n1nnn(-c2cc(F)cc(F)c2)c1=O` [Example 126, 1-(3,5-difluorophenyl)-4-(morpholine-4-carbonyl)tetrazol-5-one], for which the EC50 was above 10 µM on human CB1 receptors (setting [1]) and 13 nM at human CB2 receptors (setting [2]).

Take `CCNC(=O)CN1CCN(C(=O)n2nnn(-c3ccc(Cl)cc3)c2=O)CC1` [Example 106, 2-{4-[4-(4-Chloro-phenyl)-5-oxo-4,5-dihydro-tetrazole-1-carbonyl]-piperazin-1-yl}-N-ethyl-acetamide]: the EC50 on human CB1 receptors (setting [1]) was above 10 µM; on human CB2 receptors (setting [2]), 10.6 nM.

Take `CCCCNC(=O)CN1CCN(C(=O)n2nnn(-c3cccc(Cl)c3)c2=O)CC1` [Example 107, N-Butyl-2-{4-[4-(3-chloro-phenyl)-5-oxo-4,5-dihydro-tetrazole-1-carbonyl]-piperazin-1-yl}-acetamide]: the EC50 was above 10 µM on human CB1 receptors (setting [1]) and 2.9 nM at human CB2 receptors (setting [2]).

Take `CCN(CC)C(=O)N1CCN(C(=O)n2nnn(-c3cccc(F)c3)c2=O)CC1` [Example 40, 4-[4-(3-Fluoro-phenyl)-5-oxo-4,5-dihydro-tetrazole-1-carbonyl]-piperazine-1-carboxylic acid diethylamide]: the EC50 on human CB1 receptors (setting [1]) is above 10 µM; at human CB2 receptors (setting [2]), 52.8 nM.

For the molecule `CC(=O)N[C@@H]1CCN(C(=O)n2nnn(-c3ccc(Cl)cc3)c2=O)C1` [Example 67, N—{(R)-1-[4-(4-Chloro-phenyl)-5-oxo-4,5-dihydro-tetrazole-1-carbonyl]-pyrrolidin-3-yl}-acetamide], the EC50 on human CB1 receptors (setting [1]) is above 10 µM; at human CB2 receptors (setting [2]) it was 14.6 nM.

As to `O=C(Cn1nnn(-c2cccc(Cl)c2)c1=O)N1CCOCC1` [Example 115, 1-(3-Chloro-phenyl)-4-(2-morpholin-4-yl-2-oxo-ethyl)-1,4-dihydro-tetrazol-5-one], the values for the EC50 on human CB1 receptors (setting [1]) and on human CB2 receptors (setting [2]) were above 10 µM and 2020 nM, respectively.

On to `O=C(CN1CCN(C(=O)n2nnn(-c3cccc(Cl)c3)c2=O)CC1)N1CCCC1` [Example 95, 1-(3-Chloro-phenyl)-4-[4-(2-oxo-2-pyrrolidin-1-yl-ethyl)-piperazine-1-carbonyl]-1,4-dihydro-tetrazol-5-one], for which the EC50 on human CB1 receptors (setting [1]) was above 10 µM; on human CB2 receptors (setting [2]), 4.7 nM.

In the case of `O=C(N1CCOCC1)n1nnn(-c2cccc(Cl)c2)c1=O` [Example 101, 1-(3-Chloro-phenyl)-4-(morpholine-4-carbonyl)-1,4-dihydro-tetrazol-5-one], the EC50 at human CB1 receptors (setting [1]) was above 10 µM; on human CB2 receptors (setting [2]) it was 3.2 nM.

In the case of `CC(=O)NC1CCN(C(=O)n2nnn(-c3cccc(F)c3)c2=O)C1` (stereo not shown) [Example 23, N-{1-[4-(3-Fluoro-phenyl)-5-oxo-4,5-dihydro-tetrazole-1-carbonyl]-pyrrolidin-3-yl}-acetamide], the EC50 at human CB1 receptors (setting [1]) was above 10 µM; on human CB2 receptors (setting [2]), 31.4 nM.

Take `CCOCCN(CC)C(=O)n1nnn(-c2ccc(Cl)cc2)c1=O` [Example 100, 4-(4-Chloro-phenyl)-5-oxo-4,5-dihydro-tetrazole-1-carboxylic acid (2-ethoxy-ethyl)-ethyl-amide]: the EC50 at human CB1 receptors is above 10 µM; on human CB2 receptors, 1.7 nM.

`O=C(N1CCOCC1)n1nnn(-c2ccc(C(F)(F)F)cc2)c1=O` [Example 121, 1-(morpholine-4-carbonyl)-4-[4-(trifluoromethyl)phenyl]tetrazol-5-one]: the results for the EC50 at human CB1 receptors (setting [1]) and on human CB2 receptors (setting [2]) were above 10 µM and 16 nM, respectively.

Turning to `CCOCCN(C)C(=O)n1nnn(-c2ccc(Cl)cc2)c1=O` [Example 113, 4-(4-Chloro-phenyl)-5-oxo-4,5-dihydro-tetrazole-1-carboxylic acid (2-ethoxy-ethyl)-methyl-amide], the EC50 on human CB1 receptors (setting [1]) is above 10 µM; at human CB2 receptors (setting [2]), 1.4 nM.
